The target in data set [1] is T1, α-synuclein lesion (Mus musculus, UniProt O55042).
T1 construct: from tissue; host or cells: brain of C57/BL/6 mouse inoculated in the striatum with recombinant (E. coli) mouse α-synuclein fibrils; sections or living animal
The data set can be described thus: In vivo two-photon laser scanning fluorescence microscopy of α-synuclein fibril-inoculated model mouse. Particulars: 50 μl DMSO solution containing 0.1% compound, i.p. How it is done:
(§1) First, mouse α-synuclein was expressed in and extracted from E. coli as a recombinant protein, and then incubated in vitro to form insoluble α-synuclein aggregates. The α-synuclein aggregates were then inoculated into the striatum of a mouse. […] Note that the inoculation of the α-synuclein aggregates into the striatum of the mouse was carried out in the following manner. First, hair on the head of a 9-week-old C57/BL/6 male mouse which had been anesthetized with 1.5% (v/v) isoflurane was removed, and the scalp was disinfected with isodine, followed by application of xylocaine and incision in the scalp to expose the skull. Then, a hole was drilled in the skull at a position of 0.05 mm posterior to the bregma and 2 mm lateral to the midline, and 3 μl of an α-synuclein fibril solution (mouse α-synuclein fibril (4 mg/ml) in saline) was injected into a position […] ventral to the brain surface with use of a glass pipette. The scalp was then returned and sutured.
A model mouse was anesthetized with 1.5% (v/v) isoflurane 6 or more weeks after inoculation of an α-synuclein fibril solution. Then, a cranial window was placed on the model mouse in accordance with the Seylaz-Tomita method (Tomita et al. J Cereb Blood Flow Metab 25, 858-67, 2005). Two or more weeks after the placement of the cranial window, the mouse was anesthetized with 1.5% (v/v) isoflurane, and then 50 μl of a DMSO solution containing 0.1% BF-227, PBB3, SPAL-T-05, or SPAL-T-06 was intraperitoneally administered to the mouse. Thirty minutes after the administration, the mouse was fixed under a two-photon laser fluorescence microscope, 100 μl of physiological saline containing 5 mM Sulforhodamine 101 was intraperitoneally administered to the mouse, and then intravital two-photon fluorescence imaging was carried out at an excitation wavelength of 900 nm. Detection wavelengths for BF-227, PBB3, SPAL-T-05, and SPAL-T-06 were set at 500 nm to 550 nm, and a detection wavelength for Sulforhodamine 101 was set at 573 nm to 648 nm. In FIG. 4, each arrowhead indicates a blood vessel, and each arrow indicates fluorescence from the compound binding to an α-synuclein lesion.

In data set [2] the target is T2, α-synuclein aggregates (Mus musculus, UniProt O55042).
T2 construct: from tissue; host or cells: brain of C57/BL/6 mouse inoculated in the striatum with recombinant (E. coli) mouse α-synuclein fibrils; sections or living animal
The data set can be described thus: In vivo PET imaging of mouse brain (α-synuclein fibril-inoculated mouse vs physiological saline-injected mouse). Particulars: intravenous injection of 18F-labeled compound, 90 minutes scan. How it is done:
as §1
PET scanning was carried out with use of a micro PET Focus 220 animal scanner (Siemens Medical Solutions), which provided 95 slices each having a thickness of 0.851 mm (center thickness), a […]. Before the scanning, an α-synuclein fibril-inoculated mouse and a physiological saline-injected mouse (control) were each anesthetized with 1.5% (v/v) isoflurane. […]

For data set [3], the target named is T3, α-synuclein lesions (Homo sapiens, UniProt P37840).
T3 construct: α-synuclein aggregates formed in the brain of the DLB patient; from tissue; host or cells: post-mortem human brain: amygdala of DLB patient (sections or homogenate); cerebellum of MSA patient
The experiment in a line: In vitro fluorescence microscope measurement of the sections subjected to autoradiography (DLB, MSA). Particulars: 30 μM, 50% ethanol, 30 minutes. How it is done:
The section that had been subjected to the autoradiography was analyzed by fluorescent staining. Specifically, the section and 30 μM SPAL-T-06 were incubated in a 50% ethanol solution at room temperature for 30 minutes. Thereafter, the section was washed with a 50% ethanol solution for 5 minutes and with ultrapure water for 3 minutes. This washing was carried out twice. After the section was mounted in a mounting medium (VECTASHIELD H-1000), an image of an α-synuclein aggregate-enriched area on the section was obtained with use of a fluorescence microscope (DM4000 (excitation wavelength: 391 nm to 437 nm)). An adjacent brain section was also washed with a phosphate buffer solution, and then treated in an autoclave for antigen retrieval. After the section was subjected to immunohistochemical staining with an anti-phosphorylated α-synuclein monoclonal antibody (pS129, abcam, ab59264) (1:1000) and then mounted in a mounting medium (VECTASHIELD H-1000), images were obtained with use of fluorescence microscopes (BZ-X710, KEYENCE (excitation wavelength: 450 nm to 490 nm) and DM4000 (excitation wavelength: 460 nm to 500 nm)).

The structures appear in SMILES notation.

As for `CNc1cnc(C#C/C=C/c2nc3ccc(OCC(O)CF)cc3s2)cn1` (stereo not shown) [SPAL-T-06, (E)-1-fluoro-3-((2-(4-(5-(methylamino)pyrazin-2-yl)but-1-en-3-yn-1-yl)benzo[d]thiazol-6-yl)oxy)propan-2-ol], the “detection of / binding to α-synuclein lesions in living mouse brain (two-photon fluorescence)” value in data set [1] (excitation 900 nm) is reported as “bound to α-synuclein lesions”. The “delivery into the brain after intraperitoneal administration” value in data set [1] (imaging 30 minutes after administration) was “delivered into the brain and further into neurons of the living body”. The “brain-entering property / clearance rate from the brain (PET)” value in data set [2] was “adequate brain-entering property or an adequate clearance rate from the brains”. The “binding to α-synuclein lesions in DLB and MSA brain sections (fluorescent staining)” value in data set [3] is on record as “bound to α-synuclein lesions”.

(Values after patent US12630544B2, “Compound, α-synuclein aggregate binder, and use thereof” (NATIONAL INSTITUTES FOR QUANTUM SCIENCE AND TECHNOLOGY, priority 2020, dated 2026).)
